pIC50: −log10 of the molar value.
Experiments:
ghrelin receptor = target: T1, ghrelin receptor (Rattus norvegicus, UniProt O08725); assay: Ghrelin antagonism in electrically stimulated rat gastric fundus strips (called In Vivo Test); conditions: isolated rat gastric fundus strips, electric-field stimulation, ghrelin 0.1 nM-1 μM concentration-response curves, antagonist contact time 30 minutes; read-out: IC50, antagonist activity towards the ghrelin receptor
T1 construct: Strips of approximately 1 cm (5 mm wide) of gastric fundus were cut out along the longitudinal axis; from tissue; host or cells: rat gastric fundus strips
Protocol: Male Crl CD BR rats (Charles River, Italy) weighing 150-175 g were housed in a chamber at regulated temperature (22±1° C.) and humidity (55±10%) and with a 12-hour lightness-darkness cycle, for at least 7 days before their use. Feed and water were available ad libitum. The feed was removed 18 hours before sacrificing the animals. The rats were sacrificed by cervical dislocation, and the stomach was removed surgically, opened along the shorter curvature and placed in a Krebs solution (of composition (mM): 118.4 NaCl; 4.7 KCl; 2.5 CaCl2; 3.7 NaH2PO4; 1.2 MgSO4; 25 NaHCO3; 5.6 glucose). The animals were cared for and sacrificed according to the Sanofi-Aventis international code of ethics and the international principles governing the care and treatment of laboratory animals (EEC Directive 86/609, DJL358, 1, 12 Dec. 1987). […] The contractions were recorded by computer with a data recording and analysis system (Power Lab, Chart 5) connected to isotonic transducers (Ugo Basile, Varese, Italy) via preamplifiers (Octal Bridge Amp). […] The pKb values for the antagonists were calculated according to the Cheng-Prusoff equation (Kenakin et al., Competitive Antagonism, Pharmacologic Analysis of Drug-Receptor Interaction, 3rd edition, 331-373, Philadelphia, New York; Raven: Lippincott, 1997).

T1 sequence (O08725 whole entry): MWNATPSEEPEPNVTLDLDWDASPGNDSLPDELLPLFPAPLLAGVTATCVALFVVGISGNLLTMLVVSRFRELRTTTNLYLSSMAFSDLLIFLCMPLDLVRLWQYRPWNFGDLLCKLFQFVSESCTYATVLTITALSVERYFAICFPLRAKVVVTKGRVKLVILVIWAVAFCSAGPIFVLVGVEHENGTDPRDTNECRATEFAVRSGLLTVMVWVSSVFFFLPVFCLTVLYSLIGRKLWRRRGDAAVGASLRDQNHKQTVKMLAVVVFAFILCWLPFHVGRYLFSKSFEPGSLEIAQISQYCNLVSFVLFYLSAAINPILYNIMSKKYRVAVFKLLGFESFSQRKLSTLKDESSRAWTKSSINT

pIC50 (ghrelin receptor)	melting point	SMILES
7.92	137 to 138 °C	CCN1CCN(C(C)C(=O)NC2(c3ccc4occc4c3)C(=O)Nc3cc(Cl)cc(Cl)c32)CC1 (single isomer, unassigned; (+)) [Example 2, (+)-N-[4,6-Dichloro-3-(benzofuran-5-yl)-2-oxo-2,3-dihydro-1H-indol-3-yl]-2-(4-ethylpiperazin-1-yl)propionamide]
	157 to 160 °C	CCN1C(C)CN(CC(=O)NC2(c3ccc4occc4c3)C(=O)Nc3cc(Cl)cc(Cl)c32)CC1C (single isomer, unassigned; (+)) [Example 1, (+)-N-[4,6-Dichloro-3-(benzofuran-5-yl)-2-oxo-2,3-dihydro-1H-indol-3-yl]-2-(4-ethyl-3,5-dimethylpiperazin-1-yl)acetamide]

Reference: patent US9889130B2, “Substituted 3-benzofuranyl-indol-2-one-3-acetamididopiperazine derivatives, preparation thereof, and therapeutic use thereof” (SANOFI, priority 2009, dated 2018)
